Reference: PubChem BioAssay AID1963843 (Molecular Pharmacology Branch, DTP, NCI, 2024)

System: 616215-338-R-J1-PDC complex spheroid viability
Assay: Anticancer human tumor 616215-338-R-J1-PDC patient-derived colon adenocarcinoma cell line growth inhibition [POLQ]
Conditions: for IC50: curve of first compound; for viability, T/C: stronger effect = lower value
Summary of the method: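 Complex spheroid viability model combining PDC tumour cells with endothelial (HUVEC) and MSC stromal cells. Novobiocin, ART-558 or RP6685 were tested singly and in combination with standard and investigational anticancer drugs. Each was titrated in half-log steps from near clinical Cmax, or from 10 microM where Cmax was unknown.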

[1] = second compound 0.0316 µM, first compound 0.0316 µM
[2] = second compound 0.0316 µM, first compound 0.1 µM
[3] = second compound 0.0316 µM, first compound 0.316 µM
[4] = second compound 0.0316 µM, first compound 1 µM
[5] = second compound 0.0316 µM, first compound 3.16 µM
[6] = second compound 0.0316 µM, first compound 10 µM
[7] = second compound 0.1 µM, first compound 0.0316 µM
[8] = second compound 0.1 µM, first compound 0.1 µM
[9] = second compound 0.1 µM, first compound 0.316 µM
[10] = second compound 0.1 µM, first compound 1 µM
[11] = second compound 0.1 µM, first compound 3.16 µM
[12] = second compound 0.1 µM, first compound 10 µM
[13] = second compound 0.316 µM, first compound 0.0316 µM
[14] = second compound 0.316 µM, first compound 0.1 µM
[15] = second compound 0.316 µM, first compound 0.316 µM
[16] = second compound 0.316 µM, first compound 1 µM
[17] = second compound 0.316 µM, first compound 3.16 µM
[18] = second compound 0.316 µM, first compound 10 µM
[19] = second compound 1 µM, first compound 0.0316 µM
[20] = second compound 1 µM, first compound 0.1 µM
[21] = second compound 1 µM, first compound 0.316 µM
[22] = second compound 1 µM, first compound 1 µM
[23] = second compound 1 µM, first compound 3.16 µM
[24] = second compound 1 µM, first compound 10 µM
[25] = second compound 3.16 µM, first compound 0.0316 µM
[26] = second compound 3.16 µM, first compound 0.1 µM
[27] = second compound 3.16 µM, first compound 0.316 µM
[28] = second compound 3.16 µM, first compound 1 µM
[29] = second compound 3.16 µM, first compound 3.16 µM
[30] = second compound 3.16 µM, first compound 10 µM
[31] = second compound 10 µM, first compound 0.0316 µM
[32] = second compound 10 µM, first compound 0.1 µM
[33] = second compound 10 µM, first compound 0.316 µM
[34] = second compound 10 µM, first compound 1 µM
[35] = second compound 10 µM, first compound 3.16 µM
[36] = second compound 10 µM, first compound 10 µM
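Note: spheroids exposed to compounds for one week before readout.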
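Throughout, for viability, T/C: percent viability relative to DMSO vehicle wells taken as 100%.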

`C=CC(=O)N1CCN(c2nc(=O)n(-c3c(C)ccnc3C(C)C)c3nc(-c4c(O)cccc4F)c(F)cc23)C(C)C1` (stereo unspecified) + COC1C(OC(N)=O)C(O)C(Oc2ccc3c(O)c(NC(=O)c4ccc(O)c(CC=C(C)C)c4)c(=O)oc3c2C)OC1(C)C was tested, and the IC50 (second compound 0.0316 µM) was > 10 µM, the IC50 (second compound 0.1 µM) was > 10 µM and the IC50 (second compound 0.316 µM) was > 10 µM. The IC50 (second compound 1 µM) was > 10 µM, the IC50 (second compound 3.16 µM) was > 10 µM and the IC50 (second compound 10 µM) was > 10 µM. It also gave a viability, T/C [1] of 105%, a viability, T/C [2] of 99.7% and a viability, T/C [3] of 98.4%. It also gave a viability, T/C [4] of 108%, a viability, T/C [5] of 113% and a viability, T/C [6] of 106%. The viability, T/C [7] was 98.4%, the viability, T/C [8] was 98.1% and the viability, T/C [9] was 98%. For the same compound, the viability, T/C [10] was 93.3%, the viability, T/C [11] was 104% and the viability, T/C [12] was 87.8%. It also gave a viability, T/C [13] of 104%, a viability, T/C [14] of 99.7% and a viability, T/C [15] of 99.6%. For the same compound, the viability, T/C [16] was 95%, the viability, T/C [17] was 107% and the viability, T/C [18] was 95.8%. The viability, T/C [19] was 96.9%, the viability, T/C [20] was 95.8% and the viability, T/C [21] was 94%. For the same compound, the viability, T/C [22] was 101%, the viability, T/C [23] was 105% and the viability, T/C [24] was 90.6%. It also gave a viability, T/C [25] of 94.8%, a viability, T/C [26] of 103% and a viability, T/C [27] of 94.3%. For the same compound, the viability, T/C [28] was 95%, the viability, T/C [29] was 104% and the viability, T/C [30] was 70.4%. It also gave a viability, T/C [31] of 99.7%, a viability, T/C [32] of 94.3% and a viability, T/C [33] of 98%. It also gave a viability, T/C [34] of 102%, a viability, T/C [35] of 102% and a viability, T/C [36] of 83.6%.

Compound `CCc1cc2c(N3CCc4c(cc(Cn5ccnc5)cc4-c4cn(C)nc4C(F)(F)F)C3=O)cc(C)nc2c(OC)n1` + COC1C(OC(N)=O)C(O)C(Oc2ccc3c(O)c(NC(=O)c4ccc(O)c(CC=C(C)C)c4)c(=O)oc3c2C)OC1(C)C has an IC50 (second compound 0.0316 µM) of 8.7 µM, an IC50 (second compound 0.1 µM) of 9.03 µM and an IC50 (second compound 0.316 µM) of 6.27 µM. It also gave an IC50 (second compound 1 µM) of 8.55 µM, an IC50 (second compound 3.16 µM) of 8.18 µM and an IC50 (second compound 10 µM) of 9.28 µM. It also gave a viability, T/C [1] of 101%, a viability, T/C [2] of 109% and a viability, T/C [3] of 109%. It also gave a viability, T/C [4] of 110%, a viability, T/C [5] of 60.5% and a viability, T/C [6] of 48.6%. The viability, T/C [7] was 106%, the viability, T/C [8] was 111% and the viability, T/C [9] was 99.5%. It also gave a viability, T/C [10] of 92.9%, a viability, T/C [11] of 64.6% and a viability, T/C [12] of 48.8%. It also gave a viability, T/C [13] of 106%, a viability, T/C [14] of 109% and a viability, T/C [15] of 99.7%. It also gave a viability, T/C [16] of 91%, a viability, T/C [17] of 59.8% and a viability, T/C [18] of 43.1%. For the same compound, the viability, T/C [19] was 113%, the viability, T/C [20] was 105% and the viability, T/C [21] was 104%. For the same compound, the viability, T/C [22] was 85.1%, the viability, T/C [23] was 57% and the viability, T/C [24] was 49.2%. The viability, T/C [25] was 113%, the viability, T/C [26] was 110% and the viability, T/C [27] was 102%. For the same compound, the viability, T/C [28] was 86.6%, the viability, T/C [29] was 76% and the viability, T/C [30] was 44.2%. The viability, T/C [31] was 115%, the viability, T/C [32] was 99.2% and the viability, T/C [33] was 95%. It also gave a viability, T/C [34] of 77.3%, a viability, T/C [35] of 53.8% and a viability, T/C [36] of 51.8%.

In the case of `CCc1c2c(nc3ccc(O)cc13)-c1cc3c(c(=O)n1C2)COC(=O)[C@]3(O)CC` + COC1C(OC(N)=O)C(O)C(Oc2ccc3c(O)c(NC(=O)c4ccc(O)c(CC=C(C)C)c4)c(=O)oc3c2C)OC1(C)C, the IC50 (second compound 0.0316 µM) is reported as 0.0937 µM, the IC50 (second compound 0.1 µM) is reported as 0.0872 µM and the IC50 (second compound 0.316 µM) is reported as 0.0926 µM. The IC50 (second compound 1 µM) was 0.0721 µM, the IC50 (second compound 3.16 µM) was 0.0493 µM and the IC50 (second compound 10 µM) was 0.0307 µM. For the same compound, the viability, T/C (second compound 0.0316 µM, first compound 0.00316 µM) was 110%, the viability, T/C (second compound 0.0316 µM, first compound 0.01 µM) was 87.6% and the viability, T/C [1] was 70.6%. For the same compound, the viability, T/C [2] was 49.2%, the viability, T/C [3] was 30.4% and the viability, T/C [4] was 20.2%. The viability, T/C (second compound 0.1 µM, first compound 0.00316 µM) was 103%, the viability, T/C (second compound 0.1 µM, first compound 0.01 µM) was 95.4% and the viability, T/C [7] was 73.5%. The viability, T/C [8] was 45.8%, the viability, T/C [9] was 30.1% and the viability, T/C [10] was 19.2%. It also gave a viability, T/C (second compound 0.316 µM, first compound 0.00316 µM) of 107%, a viability, T/C (second compound 0.316 µM, first compound 0.01 µM) of 95.7% and a viability, T/C [13] of 67.8%. It also gave a viability, T/C [14] of 50%, a viability, T/C [15] of 30.8% and a viability, T/C [16] of 18.5%. It also gave a viability, T/C (second compound 1 µM, first compound 0.00316 µM) of 103%, a viability, T/C (second compound 1 µM, first compound 0.01 µM) of 81.3% and a viability, T/C [19] of 60.7%. It also gave a viability, T/C [20] of 47.9%, a viability, T/C [21] of 28.9% and a viability, T/C [22] of 19.6%. The viability, T/C (second compound 3.16 µM, first compound 0.00316 µM) was 106%, the viability, T/C (second compound 3.16 µM, first compound 0.01 µM) was 87.2% and the viability, T/C [25] was 59.7%. For the same compound, the viability, T/C [26] was 35.1%, the viability, T/C [27] was 24.1% and the viability, T/C [28] was 20.6%. It also gave a viability, T/C (second compound 10 µM, first compound 0.00316 µM) of 86.7%, a viability, T/C (second compound 10 µM, first compound 0.01 µM) of 65.5% and a viability, T/C [31] of 53.7%. It also gave a viability, T/C [32] of 32.5%, a viability, T/C [33] of 21.7% and a viability, T/C [34] of 21.1%.
